{"source": "patent US6770660B2", "about": "“Method for inhibiting platelet aggregation” (Artery LLC, priority 2002, dated 2004)", "key": {"[1]": {"settings": "for major bleeding episodes: patients", "method": "Patients were treated with a 20 μg/kg bolus of tirofiban hydrochloride followed by a 0.15 μg/kg/min infusion for 18-24 hours or a 25 μg/kg bolus followed by the same infusion. Enrollment of subjects in the panel with the 20 μg/kg bolus (n=15/panel) was completed and the clinical effects and pharmacodynamic properties were evaluated before subjects were enrolled in the panel with the 25 μg/kg bolus. Patients were treated with aspirin (325 mg before the procedure and daily) and unfractionated heparin (target activated clotting time 250 seconds). Clopidogrel (300 mg and then 75 mg daily)(commercially available as PLAVIX®) was administered at least 45 minutes after the start of tirofiban hydrochloride. All other medications were administered at the discretion of the attending cardiologist. Sheath removal was performed when the activated clotting time was less than 175 seconds unless a closure device was used. […] The occurrence of 3 major bleeding episodes (as defined by the American College of Cardiology Task force (Cannon et al. J. Am. Coll. Cardiol. (2001) vol. 38 pp. 2114-30) in each panel was a pre-specified criteria for termination of the study."}, "[2]": {"test_system": "platelet aggregation", "settings": "patients; 10 μg/kg bolus followed by 0.15 μg/kg/min infusion; 15 to 60 minutes after bolus; monohydrochloride; cited from earlier work"}, "[3]": {"test_system": "platelet aggregation", "settings": "patients, 15 through 60 minutes, 20 μM adenosine diphosphate, monohydrochloride", "method": "Patients were treated with a 20 μg/kg bolus of tirofiban hydrochloride followed by a 0.15 μg/kg/min infusion for 18-24 hours or a 25 μg/kg bolus followed by the same infusion. Enrollment of subjects in the panel with the 20 μg/kg bolus (n=15/panel) was completed and the clinical effects and pharmacodynamic properties were evaluated before subjects were enrolled in the panel with the 25 μg/kg bolus. Patients were treated with aspirin (325 mg before the procedure and daily) and unfractionated heparin (target activated clotting time 250 seconds). Clopidogrel (300 mg and then 75 mg daily)(commercially available as PLAVIX®) was administered at least 45 minutes after the start of tirofiban hydrochloride. All other medications were administered at the discretion of the attending cardiologist. Sheath removal was performed when the activated clotting time was less than 175 seconds unless a closure device was used."}, "[4]": {"test_system": "capacity of platelets to bind fibrinogen", "settings": "25 μg/kg (high) bolus compared with 20 μg/kg bolus; 1 μM adenosine diphosphate; flow cytometry", "protocol": "Blood was obtained after 5 minutes for analysis by flow cytometry. […] Blood for flow cytometry was anticoagulated with corn trypsin inhibitor, a specific inhibitor of coagulation factor XIIa without effect on other coagulation factors (Schneider et al., Circulation (1997) vol. 96 pp. 2877-83). […] For flow cytometry, samples were processed and platelets were fixed at each site. […] Light transmission aggregometry and rapid platelet function analyzer were performed with […] -chloromethyl ketone as the anticoagulant and flow cytometry was performed with blood anticoagulated with corn trypsin inhibitor."}}, "note": "Counter-ions that a name gives are not always drawn. Like-named read-outs stand apart in the source and are kept apart here."}
{"smiles": "CCCCS(=O)(=O)N[C@@H](Cc1ccc(OCCCCC2CCNCC2)cc1)C(=O)O", "note": "[tirofiban hydrochloride, N-(butylsulfonyl)-O-[4-(4-piperidinyl)butyl]-L-tyrosine monohydrochloride]", "values": [{"measurement": "undesirable side effects", "setting": "[1]; about 25 μg/kg bolus compared with conventional bolus", "value": "absence of increased undesirable side effects"}, {"measurement": "major bleeding episodes", "setting": "[1]; 20 μg/kg bolus followed by 0.15 μg/kg/min infusion for 18-24 hours", "value": "No major bleeding episode occurred"}, {"measurement": "major bleeding episodes", "setting": "[1]; 25 μg/kg bolus followed by 0.15 μg/kg/min infusion for 18-24 hours", "value": "No major bleeding episode occurred"}, {"measurement": "average inhibition of maximal aggregation / % Inhibition of platelet aggregation 15-60 minutes after bolus injection", "setting": "[2]", "value": "61-66%"}, {"measurement": "average extent of inhibition of platelet aggregation / % Inhibition of platelet aggregation 15-60 minutes after bolus injection", "setting": "[3]; 20 μg/kg bolus followed by 0.15 μg/kg/min infusion", "value": "84-89%"}, {"measurement": "average extent of inhibition of platelet aggregation / % Inhibition of platelet aggregation 15-60 minutes after bolus injection", "setting": "[3]; 25 μg/kg bolus followed by 0.15 μg/kg/min infusion, listed as tirofiban", "value": "92-95%"}, {"measurement": "average extent of inhibition of platelet aggregation / % Inhibition of platelet aggregation 15-60 minutes after bolus injection", "setting": "[3]; 25 μg/kg bolus followed by 0.15 μg/kg/min infusion", "value": "greater than 90%"}, {"measurement": "extent of inhibition of the capacity to bind fibrinogen", "setting": "[4]", "value": "greater"}]}
